Here are results for nine compounds from article PMC4284516 (Scientific Reports, 2015).

Molecules are shown by their SMILES.

In one data set the test system is mice. The settings on record: cited from earlier work.
Another data set has as its system MAGL over FAAH. The settings on record: cited from earlier work.
The subject of a further data set is Swiss mice. Put plainly: Novel object recognition task.
A further data set concerns NMRI mice. Put plainly: Y-maze test. Format: in vivo. The settings on record: 1.5 mg/kg, i.p.
Data set [1] concerns the target T1, human recombinant MAGL (rhMAGL) (Homo sapiens, UniProt Q99685).
T1 sequence (Q99685 1-303): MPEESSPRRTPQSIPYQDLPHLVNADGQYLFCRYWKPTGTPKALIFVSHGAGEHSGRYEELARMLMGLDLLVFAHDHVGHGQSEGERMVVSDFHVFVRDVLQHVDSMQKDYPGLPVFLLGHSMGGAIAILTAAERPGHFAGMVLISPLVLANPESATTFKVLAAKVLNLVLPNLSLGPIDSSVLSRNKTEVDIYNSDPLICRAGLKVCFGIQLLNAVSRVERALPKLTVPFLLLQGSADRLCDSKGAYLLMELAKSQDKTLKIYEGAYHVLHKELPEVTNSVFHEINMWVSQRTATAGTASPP
Briefly: MAGL biochemical assay. The settings on record: read-out: IC50, rhMAGL; 4-nitrophenylacetate substrate; N = 3.

In data set [2] the test system is OF1 mice. Put plainly: Mouse tetrad experiments. The settings on record: 15 mg/kg i.p.
The test system of data set [3] is OF1 mice. Briefly: Elevated plus-maze test. The settings on record: diazepam 3 mg/kg p.o., 60 min before testing.
In data set [4] the test system is OF1 mice. Briefly: Pentylenetetrazol. The settings on record: diazepam 3 mg/kg i.p.
Data set [5] deals with OF1 mice. Briefly: 6-Hz electroshock-induced seizures. Format: in vivo. The settings on record: levetiracetam 20 mg/kg i.p.
Data set [6] has as its system PBQ-induced writhing in OF1 mice. Briefly: Phenylbenzoquinone. Format: in vivo. The settings on record: combined with SAR127303 3 mg/kg p.o.
The test system of the next data set is rat hippocampal slices. Put plainly: [3H]ACh release evoked by electrical depolarisation in hippocampal slices. In kind it is cell-based, Sprague-Dawley rats. The settings on record: rimonabant 10^−7 mol/L.

With `O=C(Oc1ccc([N+](=O)[O-])cc1)N1CCC(C(O)(c2ccc3c(c2)OCO3)c2ccc3c(c2)OCO3)CC1` [JZL184], the “dose impairing MWM performance (dose that also inhibits FAAH)” value with mice was 40 mg/kg.
Consider `O=C(OC(C(F)(F)F)C(F)(F)F)N1CCC(C(O)(c2ccc3c(c2)OCO3)c2ccc3c(c2)OCO3)CC1` [KML29], for which the “selectivity for MAGL over FAAH and most other serine hydrolases” value in the data set with MAGL over FAAH is more than 100 fold.
On to `C[C@]12N[C@H](Cc3ccccc31)c1ccccc12` [MK-801], for which the “novelty index ratio versus control vehicle” value in the data set with Swiss mice (0.125 mg/kg) is “significantly reduced”.
On to `c1ccc(C2(N3CCCCC3)CCCCC2)cc1` [PCP], for which the “spontaneous alternation versus vehicle” value with NMRI mice is recorded as “significant reduction”.
Take `COc1ccc2c(C3COC(CCCNC(=O)OCC(N)=O)OC3)cccc2c1` (stereo not shown) [SSR411298]: the half-maximal inhibitory concentration (IC50) in data set [1] is more than 10 µM.
Consider `Cc1c(C(=O)c2cccc3ccccc23)c2cccc3c2n1[C@H](CN1CCOCC1)CO3` [WIN55,512-2], for which, in the data set with OF1 mice [2], the “antinociception in the tail-flick test” value is on record as “significant antinociceptive”; the catalepsy entry is “cataleptic”; the “duration of antinociceptive, hypothermic and cataleptic effects” value was “at least 4 hours”; the hypothermia entry is listed as “hypothermic”. Moreover, in the data set with OF1 mice [2], the locomotor activity entry was “decreased significantly”.
As for `CN1C(=O)CN=C(c2ccccc2)c2cc(Cl)ccc21` [diazepam], the “percentage of time in open arms” value with OF1 mice [3] is reported as “opposite effects”. Also, the “protection in the PTZ test” value in the data set with OF1 mice [4] is listed as “full protection”.
As to `CC[C@@H](C(N)=O)N1CCCC1=O` [levetiracetam], the “protection in the 6-Hz test” value in the data set on OF1 mice [5] is listed as “full protection”.
In the case of `Cc1c(C(=O)NN2CCCCC2)nn(-c2ccc(Cl)cc2Cl)c1-c1ccc(Cl)cc1` [rimonabant], the “blockade of the anti-writhing effects of SAR127303” value in data set [6] was “blocked”. In addition, the “reversal of the effect of 2-AG at 10^−8 mol/L on [3H]-ACh release” value in the data set with rat hippocampal slices is reported as “completely reversed”. Besides, the “novelty index ratio when coadministered with SAR127303” value with Swiss mice (rimonabant 3 mg/kg + SAR127303 1 mg/kg) was “significantly different from chance level”.

As a reminder, the IC50 is the concentration that inhibits the measured activity by half.
